Results from patent US20090069398A1, “Pyrazolyl Carboxamides” (Bayer CropScience AG, priority 2005, published 2009).
One block for each compound: values may come before it.

How the values were obtained:
Alternaria solani = experiment: Alternaria test (tomato)/protective; type: in vivo; details: protective, application rate 500 ppm, evaluation 7 days after inoculation
Protocol: [table] To produce a suitable preparation of active compound, 1 part by weight of active compound is mixed with the stated amounts of solvent and emulsifier, and the concentrate is diluted with water to the desired concentration. […] 1 day after the treatment, the plants are inoculated with a spore suspension of Alternaria solani and then remain at 100% relative humidity and 20° C. for 24 h. The plants then remain at 96% relative atmospheric humidity and a temperature of 20° C. Evaluation is carried out 7 days after the inoculation. 0% means an efficacy which corresponds to that of the control, whereas an efficacy of 100% means that no infection is observed.

[1] = log P determination by HPLC on reversed-phase column (EEC Directive 79/831 Annex V.A8); type: physicochemical; details: reversed-phase HPLC column (C 18); pH 2.3; HPLC reversed-phase C 18, 43° C.; 0.1% aqueous phosphoric acid/acetonitrile
Protocol: The log P values given in the Tables and Preparation Examples above are determined in accordance with EEC Directive 79/831 Annex V.A8 by HPLC (High Performance Liquid Chromatography) on reversed-phase column (C 18). Temperature: 43° C. The determination is carried out in the acidic range at pH 2.3 using the mobile phases 0.1% aqueous phosphoric acid and acetonitrile; linear gradient from 10% acetonitrile to 90% acetonitrile. Calibration is carried out using unbranched alkan-2-ones (having 3 to 16 carbon atoms) with known log P values (determination of the log P values by the retention times using linear interpolation between two successive alkanones).

Botrytis cinerea = experiment: Botrytis test (cucumber)/protective; type: in vivo; details: protective, application rate 500 ppm, evaluation 5-6 days after inoculation
Protocol: [table] To produce a suitable preparation of active compound, 1 part by weight of active compound is mixed with the stated amounts of solvent and emulsifier, and the concentrate is diluted with water to the desired concentration. To test for protective activity, young cucumber plants are sprayed with the active compound preparation at the stated application rate. 1 day after the treatment, the plants are inoculated with a spore suspension of Botrytis cinerea and then remain at 100% relative humidity and 20° C. for 48 h. The plants then remain at 96% relative atmospheric humidity and a temperature of 13° C. Evaluation is carried out 5-6 days after the inoculation. 0% means an efficacy which corresponds to that of the control, whereas an efficacy of 100% means that no infection is observed.

Pyrenophora teres = Pyrenophora teres test (barley)/protective; type: in vivo; details: protective, application rate 1000 ppm, evaluation 8 days after inoculation
Protocol: (§1) [table] To produce a suitable preparation of active compound, 1 part by weight of active compound is mixed with the stated amounts of solvent and emulsifier, and the concentrate is diluted with water to the desired concentration. To test for protective activity, young plants are sprayed with the active compound preparation at the stated application rate. After the spray coating has dried on, the plants are sprayed with a conidia suspension of Pyrenophora teres. The plants remain in an incubation cabin at 20° C. and 100% relative atmospheric humidity for 48 hours. The plants are then placed in a greenhouse at a temperature of about 20° C. and a relative atmospheric humidity of 80%. Evaluation is carried out 8 days after the inoculation. 0% means an efficacy which corresponds to that of the control, whereas an efficacy of 100% means that no infection is observed.

Puccinia recondita = experiment: Puccinia test (wheat)/protective; type: in vivo; details: protective, application rate 1000 ppm, evaluation 10 days after inoculation
Protocol: as §1, with “of Puccinia recondita.” for “of Pyrenophora teres.”, “of 80% to promote the development of rust pustules.” for “of 80%.”, “out 10” for “out 8”

Compound: CCn1cc(C(=O)Nc2ccc(F)cc2-c2ccc(Cl)c(F)c2)c(C(F)F)n1 [drawing 20]
- Efficacy in % (Alternaria solani): 95%

- chromatographic logP [1]: 4.53
Compound: Cn1nc(C(C)(C)C)c(C(=O)Nc2ccc(F)cc2-c2ccc(Cl)c(Cl)c2)c1Cl [Example 5]

Compound: Cn1nc(C(C)(C)C)c(C(=O)Nc2ccc(F)cc2-c2ccc(Cl)c(Cl)c2)c1Cl [drawing 18]
- Efficacy in % (Botrytis cinerea): 70%

Compound: CCn1cc(C(=O)Nc2ccc(F)cc2-c2ccc(Cl)c(Cl)c2)c(C(F)F)n1 [drawing 17]
- Efficacy in % (Pyrenophora teres): 100%

Compound: CCn1cc(C(=O)Nc2ccc(F)cc2-c2ccc(Cl)c(Cl)c2)c(C(F)F)n1 [drawing 16]
- Efficacy in % (Puccinia recondita): 95%

- chromatographic logP [1]: 3.61
Compound: CCn1cc(C(=O)Nc2ccc(F)cc2-c2ccc(Cl)c(Cl)c2)c(C(F)F)n1 [Example 1, N-(3′,4′-dichloro-5-fluorobiphenyl-2-yl)-3-(difluoromethyl)-1-ethyl-1H-pyrazole-4-carboxamide]

- chromatographic logP [1]: 3.34
Compound: CCn1cc(C(=O)Nc2ccc(F)cc2-c2ccc(Cl)c(F)c2)c(C(F)F)n1 [Example 2, N-(4′-chloro-3′,5-difluorobiphenyl-2-yl)-3-(difluoromethyl)-1-ethyl-1H-pyrazole-4-carboxamide]

Compound: CCn1cc(C(=O)Nc2ccc(F)cc2-c2ccc(Cl)c(Cl)c2)c(C(F)F)n1 [drawing 19]
- Efficacy in % (Alternaria solani): 95%
